Assay results reported in patent publication US12097177B2, “Therapeutic method for cat with chronic kidney disease” (Toray Industries, Inc., priority 2021, dated 2024).
Where two headings read alike, the source gives them in different places.

Legend:
[1] = test system: patient with chronic renal failure; settings: BPS immediate release tablets; serum creatinine of 2.2 mg/dl or higher; cited from earlier work
[2] = test system: cats with chronic renal failure; settings: cited from earlier work; for kidney function: 4 cats
cats with CKD [3] = settings: 20 to 55 μg twice daily, 2 months to 3 years and 3 months; cited from earlier work
cats with CKD [4] = assay: Retrospective observation study: period before kidney death (serum creatinine higher than 10.0 mg/dL), BPS therapy vs No BPS therapy; type: in vivo, cat; settings: for 3-year kidney survival rate: cats with CKD; for average period before kidney death: Kaplan-Meier
Procedure: Based on the drug prescription records, cats were divided into two groups: a BPS therapy group consisting of 73 cats; and a BPS therapy-free group consisting of 126 cats.
In Example 3, the periods before kidney death were compared and analyzed retrospectively. The timing of kidney death was determined with reference to the guidelines on acute kidney insufficiency from the International Renal Interest Society. On the basis of the statement such that “a patient may die within 5 to 10 days despite appropriate conservative therapy without kidney replacement therapy if serum creatinine is higher than 10.0 mg/dL,” specifically, kidney death was determined when serum creatinine of higher than 10.0 mg/dL was recorded in the serum creatinine test. By designating kidney death as the outcome, the start date of treatment as the point of origin for the cats in the BPS therapy group, and the start date of observation as the point of origin for the cats in the No BPS therapy group, the periods (months) before the outcome was observed were recorded. In analysis, the 3-year kidney survival rates (%) of the BPS therapy group and of the No BPS therapy group, the standard errors thereof, the 95% confidence intervals, and the comparison of the 3-year kidney survival rates (%) between the groups were calculated. […] Differences in the kidney survival rates were assessed by the log rank test, the Cochran-Mantel-Haenszel test, by setting significant level at a two-tailed P-value of <0.05.
Based on the drug prescription records, cats were divided into two groups: a BPS therapy group consisting of 37 cats; and a BPS therapy-free group consisting of 332 cats.
In Comparative Example 2, the periods before kidney death were compared and analyzed retrospectively. The timing of kidney death was determined with reference to the guidelines on acute kidney insufficiency from the International Renal Interest Society. On the basis of the statement such that “a patient may die within 5 to 10 days despite appropriate conservative therapy without kidney replacement therapy if serum creatinine is higher than 10.0 mg/dL,” specifically, kidney death was determined when serum creatinine of higher than 10.0 mg/dL was recorded in the serum creatinine test. By designating kidney death as the outcome, the start date of treatment as the point of origin for the cats in the BPS therapy group, and the start date of observation as the point of origin for the cats in the No BPS therapy group, the periods (months) before the outcome was observed were recorded. In analysis, the 3-year kidney survival rates (%) of the BPS therapy group and of the No BPS therapy group, the standard errors thereof, the 95% confidence intervals, and the comparison of the 3-year kidney survival rates (%) between the groups were calculated. […] Differences in the kidney survival rates were assessed by the log rank test, the Cochran-Mantel-Haenszel test, by setting significant level at a two-tailed P-value of <0.05.

cats with CKD [5] = settings: 55 μg twice daily for at least 5 months, cited from earlier work
[6] = first study, 26 cats (BPS group 11)
[7] = later study, 29 cats (BPS group 15)

## CC#CCC(C)[C@H](O)/C=C/[C@@H]1[C@H]2c3cccc(CCCC(=O)[O-])c3O[C@H]2C[C@H]1O.[Na+] (stereo partly shown) [BPS, Beraprost sodium]
[1]
  effects of BPS in chronic renal failure: effects of BPS are not observed
[2]; 150 μg twice daily for 6 months
  kidney function (serum creatinine, BUN, other indicators) and clinical symptoms: an improvement in kidney function
[2]; serum creatinine 1.6 to 2.4 mg/dL (mild), 150 μg twice daily for 6 months
  kidney function: improved kidney function was observed in all of the 4 subject cats
[2]; serum creatinine 2.4 to 4.0 mg/dL (moderate), 150 μg twice daily for 6 months
  kidney function: improved kidney function was observed in the 2 subject cats, and retained kidney function was observed in other 2 cats
[2]; serum creatinine higher than 4.0 mg/dL (severe), 150 μg twice daily for 6 months
  kidney function: improved kidney function was observed in a cat, and temporary improvement, followed by impairment, was observed in other 3 cats
[2]; cat with uremia caused by chronic renal failure (WO '668)
  uremia: improved uremia
[2]; mild chronic renal failure, serum creatinine 1.4 to 2.0 mg/dL, 150 μg twice daily for 6 months
  recovery from chronic renal failure: recovery from chronic renal failure was observed in 2 cats
Cats with CKD [3]
  clinical symptoms and kidney function: stabilized clinical symptoms and maintained kidney function
Cats with CKD [4]; serum creatinine 1.6 to 2.8 mg/dL (stage 2)
  3-year kidney survival rate: 90.0%
Cats with CKD [4]; serum creatinine 2.9 to 5.0 mg/dL (stage 3) or higher than 5.0 mg/dL (stage 4), 10.0 mg/dL or lower
  3-year kidney survival rate: 77.1%
Cats with CKD [4]; stage 2
  3-year kidney survival rate of BPS therapy group relative to No BPS therapy group: 0.95 times
  average kidney survival period of BPS therapy group relative to No BPS therapy group: 0.97 times
  average period before kidney death: 40.8 months
Cats with CKD [4]; stage 2 before initiation of administration
  effect on kidney death: no effects of BPS administration to inhibit kidney death were observed
Cats with CKD [4]; stage 3 or 4
  3-year kidney survival rate of BPS therapy group relative to No BPS therapy group: 1.20 times
  average kidney survival period of BPS therapy group relative to No BPS therapy group: 1.48 times
  average period before kidney death: 39.2 months
Cats with CKD [4]; stage 3 or 4 before initiation of administration
  effect on kidney death: effects of BPS administration to inhibit kidney death were observed
Cats with CKD [5]; [6]
  effect of improving the survival rate vs renin-angiotensin system inhibitor group: higher than those in the renin-angiotensin system inhibitor group
  effect of lowering the risk of 10% body weight loss vs renin-angiotensin system inhibitor group: higher than those in the renin-angiotensin system inhibitor group
Cats with CKD [5]; [7]
  effect of improving the survival rate vs renin-angiotensin system inhibitor group: no effects of improving the survival rate were observed
  effect of lowering the risk of 10% body weight loss vs renin-angiotensin system inhibitor group: effects of lowering the risk of 10% body weight loss were observed
